PMC2360155, “Novel retinoic acid metabolism blocking agents have potent inhibitory activities on human breast cancer cells and tumour growth” (British Journal of Cancer, 2007)
“Also recorded” adds a separate entry of the source.

System: MCF-7Ca tumour xenografts
Test: In vivo antitumour study, MCF-7Ca tumour xenografts
Set-up: species or system ovariectomised female athymic nude mice
Details: for Prevention of formation of MCF-7Ca tumours (in words): 20 mg kg^−1 day^−1 from the day after inoculation
Experimental: The third in vivo antitumour experiment was conducted with MCF-7Ca tumours. MCF-7Ca were provided by Dr S Chen (City of Hope, Duarte, CA, USA). The tumour xenografts were grown in mice as described previously ([Yue et al, 1994]). Subconfluent cells were scraped into Delbecco's phosphate-buffered saline, collected by centrifugation and resuspended in Matrigel (10 mg ml^−1) at 2.5 × 10^7 cells ml^−1. Each mouse received s.c. inoculations in two sites per flank with 100 μl of cell suspension. Mice in the tumour formation prevention group (n=5) were than injected daily with androstenedione (100 μg day^−1) plus VN/14-1 (20 mg kg^−1 day^−1) in the vehicle for the duration of the experiment. The rest of the mice were injected daily with 100 μg day^−1 of androstenedione. Measurements and treatments began when the tumours reached approximately 300 mm^3, about 6 weeks after cell inoculation. Mice were assigned to groups for treatment so that there was no statistically significant difference in tumour volumes among the groups at the beginning of the treatment. Tumours were measured and volumes calculated as described above. Mice were than injected s.c. daily with the indicated agents: 100 μg per mouse per day (5 × weekly) plus 10 μg per mouse per day (5 × weekly) of letrozole or 200 μg per mouse per day (5 × weekly) of anastrozole and 20 mg kg^−1 day^−1 (5 × weekly) of VN/14-1. The doses of letrozole, anastrozole, androstendione and VN/14-1 used are as determined previously ([Long et al, 2002], [2004]; [Patel et al, 2004]). The mice were treated for the indicated times, after which they were killed by decapitation and blood collected. Tumours and uteri were excised, cleaned, weighed and stored at −80°C for additional analyses.
Figure 10 Effects of VN/14-1 on the formation of MCF-7Ca tumours and effects of VN/14-1, anastrozole and letrozole on the growth of MCF-7Ca xenografts in ovariectomised female athymic nude mice. Mice were inoculated with MCF-7Ca cells as described in Materials and Methods. Beginning on the following day, androstendione (100 μg per mouse per day) was supplemented by s.c. injection for the duration of the experiment. For the tumour formation prevention group (n=5), VN/14-1 (20 mg kg^−1 day^−1) treatment began from the day after inoculation. For the other groups (VN/14-1, anastrazole and letrozole), treatment began after the tumour had reached approximately 300 mm^3 following procedures described in Materials and Methods.

Structure (SMILES): CC1=C(/C=C/C(C)=C/C=C/C(C)=C/C(=O)O)C(C)(C)CCC1n1ccnc1 (stereo not shown) [VN/14-1]
- Prevention of formation of MCF-7Ca tumours (in words): very effective in preventing the formation of MCF-7Ca tumours
- Prevention of formation of MCF-7Ca tumours (in words) (listed as VN14-1): efficacious in preventing the formation of MCF-7Ca tumours
- Inhibition of growth of established MCF-7Ca tumours (in words) (20 mg kg^−1 day^−1 s.c. (5 × weekly), androstenedione supplemented): as effective as the clinically used aromatase inhibitors, anastrozole and letrozole; also recorded: as effective as either anastrozole or letrozole
- Uterine wet weight (VN/14-1 treatment, data not shown): significant reduction in uterine wet weight
